Measured values as given in patent US7524964B2, “Tetrahydrothiopyrano pyrazole cannabinoid modulators” (Janssen Pharmaceutica NV, priority 2005, dated 2009).
Read-outs that look alike come from different tables or passages of the source.

Legend:
[1] = molecular target: human CB1 receptor (Homo sapiens, UniProt P21554); experiment: Binding assay, cannabinoid CB1 receptor ([3H]-CP-55,940 displacement); set-up: expressed in transfected cells; host or cells: SK-N-MC cells, pcDNA3 CB-1 (human), semi-purified membranes; conditions: for inhibition at 0.2 µM: test concentration 0.2 μM (superscript a); for inhibition at 1 µM: test concentration 1 μM (superscript b)
human CB1 receptor, sequence (P21554 whole entry): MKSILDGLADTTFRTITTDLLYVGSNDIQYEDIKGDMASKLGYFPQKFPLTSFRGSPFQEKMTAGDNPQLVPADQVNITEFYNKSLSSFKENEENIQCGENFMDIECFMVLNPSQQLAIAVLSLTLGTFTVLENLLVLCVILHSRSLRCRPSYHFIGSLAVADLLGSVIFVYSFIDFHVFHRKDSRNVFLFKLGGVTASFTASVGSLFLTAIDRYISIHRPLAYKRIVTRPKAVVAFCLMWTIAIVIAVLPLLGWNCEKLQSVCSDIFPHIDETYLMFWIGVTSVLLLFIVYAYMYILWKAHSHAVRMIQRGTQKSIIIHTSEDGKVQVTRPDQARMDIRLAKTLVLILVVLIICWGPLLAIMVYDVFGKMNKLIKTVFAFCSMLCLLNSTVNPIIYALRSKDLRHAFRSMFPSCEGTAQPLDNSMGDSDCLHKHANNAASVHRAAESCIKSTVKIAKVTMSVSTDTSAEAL
How it was run: (§1)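 Displacement of 0.2 nM [3H]-CP-55,940 (non-specific: 10 uM WIN 55,212) was run on semi-purified membranes of transfected SK-N-MC cells carrying human CB-1 or CB-2, 90 min, 30° C, pH 7.5. Scintillation counting; IC50 by linear regression, else % inhibition at 0.2, 1 or 10 μM.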

[2] = molecular target: T1, human CB-2 receptor (Homo sapiens, UniProt P34972); experiment: Binding assay, cannabinoid CB2 receptor ([3H]-CP-55,940 displacement); conditions: read-out: CB2 binding percent inhibition; for inhibition at 1 µM: test concentration 1 μM (superscript b)
T1 construct: expressed in transfected cells; host or cells: SK-N-MC cells, pcDNA3 CB-2 (human), semi-purified membranes
T1 sequence (P34972 whole entry): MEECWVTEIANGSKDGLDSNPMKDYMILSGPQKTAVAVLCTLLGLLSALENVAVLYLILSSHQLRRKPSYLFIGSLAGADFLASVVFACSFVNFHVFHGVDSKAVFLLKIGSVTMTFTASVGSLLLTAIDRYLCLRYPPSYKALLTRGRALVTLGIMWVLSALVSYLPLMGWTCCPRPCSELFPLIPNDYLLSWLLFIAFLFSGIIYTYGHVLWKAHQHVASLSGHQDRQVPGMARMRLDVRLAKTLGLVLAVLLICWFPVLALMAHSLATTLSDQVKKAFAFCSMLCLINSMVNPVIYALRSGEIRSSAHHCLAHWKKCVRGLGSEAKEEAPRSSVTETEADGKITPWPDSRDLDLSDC
How it was run: as §1

[3] = read-out: CB1 binding percent inhibition
[4] = test concentration 0.2 μM (superscript a)

O=C(N[C@H]1CCCC[C@@H]1O)c1nn(-c2ccc(Cl)cc2Cl)c2c1CS(=O)(=O)C/C2=C\c1ccc(F)cc1 [Cpd 68, (7Z)-1-(2,4-dichloro-phenyl)-7-(4-fluoro-benzylidene)-5,5-dioxo-4,5,6,7-tetrahydro-1H-5λ^6-thiopyrano[4,3-c]pyrazole-3-carboxylic acid [(1S,2S)-2-hydroxy-cyclohexyl]-amide]
inhibition at 0.2 µM [1, 3]: 52% | inhibition at 0.2 µM [2, 4]: 19%

O=C(NN1CCCCCC1)c1nn(-c2ccc(Cl)cc2Cl)c2c1CSC/C2=C\c1ccc(F)cc1 [Cpd 112, (7Z)-1-(2,4-dichloro-phenyl)-7-(4-fluoro-benzylidene)-1,4,6,7-tetrahydro-thiopyrano[4,3-c]pyrazole-3-carboxylic acid azepan-1-ylamide]
IC50 [1]: 10 nM | inhibition at 0.2 µM [2, 4]: 8%

CC(C)(C)OC(=O)N1CCN(NC(=O)c2nn(-c3ccc(Cl)cc3Cl)c3c2CSC/C3=C\c2ccc(F)cc2)CC1 [Cpd 64, 4-{[(7Z)-1-(2,4-dichloro-phenyl)-7-(4-fluoro-benzylidene)-1,4,6,7-tetrahydro-thiopyrano[4,3-c]pyrazole-3-carbonyl]-amino}-piperazine-1-carboxylic acid tert-butyl ester]
IC50 [1]: 24 nM | inhibition at 0.2 µM [2]: 0%

O=C(N[C@@H]1CCCC[C@H]1O)c1nn(-c2ccc(Cl)cc2Cl)c2c1CSC/C2=C\c1ccc(F)cc1 [Cpd 61, (7Z)-1-(2,4-dichloro-phenyl)-7-(4-fluoro-benzylidene)-1,4,6,7-tetrahydro-thiopyrano[4,3-c]pyrazole-3-carboxylic acid [(1R,2R)-2-hydroxy-cyclohexyl]-amide]
inhibition at 0.2 µM [1, 3]: 60% | inhibition at 0.2 µM [2, 4]: 31%

O=C(NNc1ccc(Cl)cc1Cl)c1nn(-c2ccc(Cl)cc2Cl)c2c1CSC/C2=C\c1ccc(F)cc1 [Cpd 52, (7Z)-1-(2,4-dichloro-phenyl)-7-(4-fluoro-benzylidene)-1,4,6,7-tetrahydro-thiopyrano[4,3-c]pyrazole-3-carboxylic acid N′-(2,4-dichloro-phenyl)-hydrazide]
inhibition at 0.2 µM [1, 3]: 66% | inhibition at 0.2 µM [2, 4]: 28%

C[C@H](NC(=O)/C=C/c1nn(Cc2ccccc2)c2c1CSCC2)c1ccccc1 [Cpd 32, (2E)-3-(1-benzyl-1,4,6,7-tetrahydro-thiopyrano[4,3-c]pyrazol-3-yl)-N-[(1S)-1-phenyl-ethyl]-acrylamide]
inhibition at 10 µM ([1]; test concentration 10 μM (superscript c), read-out: CB1 binding percent inhibition): 35% | inhibition at 10 µM ([2]; test concentration 10 μM (superscript c)): 47%

O=C(NN1CC2CCCC2C1)c1nn(-c2ccc(F)cc2F)c2c1CS(=O)(=O)C/C2=C\c1ccc(F)cc1 (stereo not shown) [Cpd 105, (7Z)-1-(2,4-difluoro-phenyl)-7-(4-fluoro-benzylidene)-5,5-dioxo-4,5,6,7-tetrahydro-1H-5λ^6-thiopyrano[4,3-c]pyrazole-3-carboxylic acid (hexahydro-cyclopenta[c]pyrrol-2-yl)-amide]
inhibition at 0.2 µM [1, 3]: 50% | inhibition at 0.2 µM [2, 4]: 11%

O=C(NN1CCCCC1)c1nn(-c2ccc(Cl)cc2Cl)c2c1CS(=O)(=O)C/C2=C\c1ccc(Cl)o1 [Cpd 119, (7Z)-7-(5-chloro-furan-2-ylmethylene)-1-(2,4-dichloro-phenyl)-5,5-dioxo-4,5,6,7-tetrahydro-1H-5λ^6-thiopyrano[4,3-c]pyrazole-3-carboxylic acid piperidin-1-ylamide]
IC50 [1]: 81 nM | inhibition at 0.2 µM [2, 4]: 17%

O=C(NN1CCN(CCO)CC1)c1nn(-c2ccc(Cl)cc2Cl)c2c1CSC/C2=C\c1ccc(F)cc1 [Cpd 114, (7Z)-1-(2,4-dichloro-phenyl)-7-(4-fluoro-benzylidene)-1,4,6,7-tetrahydro-thiopyrano[4,3-c]pyrazole-3-carboxylic acid [4-(2-hydroxy-ethyl)-piperazin-1-yl]-amide]
inhibition at 0.2 µM [1, 3]: 6% | inhibition at 0.2 µM [2, 4]: 5%

C[C@@H](NC(=O)c1nn(-c2ccc(Cl)cc2Cl)c2c1CSC/C2=C\c1ccc(F)cc1)c1ccccc1 [Cpd 63, (7Z)-1-(2,4-dichloro-phenyl)-7-(4-fluoro-benzylidene)-1,4,6,7-tetrahydro-thiopyrano[4,3-c]pyrazole-3-carboxylic acid [(1R)-1-phenyl-ethyl]-amide]
IC50 [1]: 9 nM | inhibition at 0.2 µM [2, 4]: 6%

CC1CCCC(C)N1NC(=O)c1nn(-c2ccc(Cl)cc2Cl)c2c1CSC/C2=C\c1ccc(F)cc1 (stereo not shown) [Cpd 111, (7Z)-1-(2,4-dichloro-phenyl)-7-(4-fluoro-benzylidene)-1,4,6,7-tetrahydro-thiopyrano[4,3-c]pyrazole-3-carboxylic acid (2,6-dimethyl-piperidin-1-yl)-amide]
IC50 [1]: 14 nM | inhibition at 0.2 µM [2, 4]: 16%

C[C@H](NS(=O)(=O)/C=C/c1nn(-c2ccc(F)cc2F)c2c1CSCC2Cc1cccc(F)c1)c1ccccc1 (stereo partly drawn) [Cpd 38, (E)-2-[1-(2,4-difluoro-phenyl)-7-(3-fluoro-benzyl)-1,4,6,7-tetrahydro-thiopyrano[4,3-c]pyrazol-3-yl]-ethenesulfonic acid [(1S)-1-phenyl-ethyl]-amide]
inhibition at 0.2 µM [1, 3]: 28% | inhibition at 0.2 µM [2, 4]: 15%

O=C(NN1CC2CCCC2C1)c1nn(-c2ccc(Cl)cc2)c2c1CSC/C2=C\c1ccc(F)cc1 (stereo not shown) [Cpd 103, (7Z)-1-(4-chloro-phenyl)-7-(4-fluoro-benzylidene)-1,4,6,7-tetrahydro-thiopyrano[4,3-c]pyrazole-3-carboxylic acid (hexahydro-cyclopenta[c]pyrrol-2-yl)-amide]
inhibition at 0.2 µM [1, 3]: 62% | inhibition at 0.2 µM [2, 4]: 5%

C[C@H](NS(=O)(=O)/C=C/c1c2c(nn1Cc1ccccc1)CCSC2)C1CCCCC1 [Cpd 8]
inhibition at 1 µM [1, 3]: 8% | inhibition at 1 µM [2]: 5%

COC[C@H]1CCCN1NC(=O)c1nn(-c2ccc(Cl)cc2Cl)c2c1CS(=O)(=O)C/C2=C\c1ccc(F)cc1 [Cpd 126, (7Z)-1-(2,4-dichloro-phenyl)-7-(4-fluoro-benzylidene)-5,5-dioxo-4,5,6,7-tetrahydro-1H-5λ^6-thiopyrano[4,3-c]pyrazole-3-carboxylic acid [(2R)-2-(methoxymethyl)-pyrrolidin-1-yl]-amide]
inhibition at 0.2 µM [1, 3]: 55% | inhibition at 0.2 µM [2, 4]: 0%

C[C@@H](NC(=O)c1c2c(nn1-c1ccc(Cl)cc1Cl)/C(=C/c1ccc(F)cc1)CSC2)C1CCCCC1 [Cpd 89, (7Z)-2-(2,4-dichloro-phenyl)-7-(4-fluoro-benzylidene)-2,4,6,7-tetrahydro-thiopyrano[4,3-c]pyrazole-3-carboxylic acid [(1R)-1-cyclohexyl-ethyl]-amide]
IC50 [1]: 74 nM | inhibition at 0.2 µM [2, 4]: 10%

C[C@@H](NS(=O)(=O)/C=C/c1nn(Cc2ccccc2)c2c1CS(=O)(=O)CC2)c1ccccc1 [Cpd 9, (E)-2-(1-benzyl-5,5-dioxo-4,5,6,7-tetrahydro-1H-5λ^6-thiopyrano[4-3-c]pyrazol-3-yl)-ethenesulfonic acid [(1R)-1-phenyl-ethyl]-amide]
inhibition at 1 µM [1, 3]: 6% | inhibition at 1 µM [2]: 6%

C[C@@H](NC(=O)c1nn(-c2ccc(Cl)cc2Cl)c2c1CS(=O)(=O)C/C2=C\c1ccc(F)cc1)c1ccccn1 [Cpd 124, (7Z)-1-(2,4-dichloro-phenyl)-7-(4-fluoro-benzylidene)-5,5-dioxo-4,5,6,7-tetrahydro-1H-5λ^6-thiopyrano[4,3-c]pyrazole-3-carboxylic acid [(1R)-1-(pyridin-2-yl)-ethyl]-amide]
IC50 [1]: 5 nM | inhibition at 0.2 µM [2, 4]: 12%

C[C@@H](NC(=O)c1nn(-c2ccc(Cl)cc2Cl)c2c1CSC/C2=C\c1ccc(F)cc1)c1ccccn1 [Cpd 127, (7Z)-1-(2,4-dichloro-phenyl)-7-(4-fluoro-benzylidene)-1,4,6,7-tetrahydro-thiopyrano[4,3-c]pyrazole-3-carboxylic acid [(1R)-1-(pyridin-2-yl)-ethyl]-amide]
IC50 [1]: 7 nM | inhibition at 0.2 µM [2]: 19%

O=C(N[C@@H]1c2ccccc2C[C@@H]1O)c1nn(-c2ccc(Cl)cc2Cl)c2c1CSC/C2=C\c1ccc(F)cc1 [Cpd 58, (7Z)-1-(2,4-dichloro-phenyl)-7-(4-fluoro-benzylidene)-1,4,6,7-tetrahydro-thiopyrano[4,3-c]pyrazole-3-carboxylic acid [(1R,2S)-2-hydroxy-indan-1-yl]-amide]
IC50 [1]: 40 nM | inhibition at 0.2 µM [2]: 25%

O=C(NN1CCCCC1)c1nn(-c2ccc(Cl)cc2)c2c1CSC/C2=C\c1ccc(F)cc1 [Cpd 93, (7Z)-1-(4-chloro-phenyl)-7-(4-fluoro-benzylidene)-1,4,6,7-tetrahydro-thiopyrano[4,3-c]pyrazole-3-carboxylic acid piperidin-1-ylamide]
IC50 [1]: 36 nM | inhibition at 0.2 µM [2, 4]: 26%

C[C@H](NC(=O)c1nn(-c2ccc(Cl)cc2Cl)c2c1CSC/C2=C\c1ccc(F)cc1)c1ccccc1 [Cpd 62, (7Z)-1-(2,4-dichloro-phenyl)-7-(4-fluoro-benzylidene)-1,4,6,7-tetrahydro-thiopyrano[4,3-c]pyrazole-3-carboxylic acid [(1S)-1-phenyl-ethyl]-amide]
IC50 [1]: 48 nM | inhibition at 0.2 µM [2, 4]: 17%

O=C(NNc1ccc(Cl)cc1Cl)c1nn(-c2ccc(Cl)cc2Cl)c2c1CS(=O)(=O)C/C2=C\c1ccc(F)cc1 [Cpd 53, (7Z)-1-(2,4-dichloro-phenyl)-7-(4-fluoro-benzylidene)-5,5-dioxo-4,5,6,7-tetrahydro-1H-5λ^6-thiopyrano[4,3-c]pyrazole-3-carboxylic acid N′-(2,4-dichloro-phenyl)-hydrazide]
inhibition at 0.2 µM [1, 3]: 55% | inhibition at 0.2 µM [2, 4]: 30%
